Data taken from PubChem BioAssay AID330 (DTP/NCI, 2004).
Values joined by “and” are separate entries in the source; they are usually repeats but may differ in a detail not shown here. Equal entries are not always repeated. Toxic doses and inconclusive results are not listed. How the source made its calls: active means survival T/C of 150% or more; inactive means T/C below 125% in these data. Peptide text beside a SMILES is read from it.

Tested on: P388 leukemia ip, CD2F1 mice, survival T/C
Test: NCI In Vivo Anticancer Drug Screen. Data for tumor model P388 Leukemia (intraperitoneal) in CD2F1 (CDF1) mice
Details: endpoint: median survival time, higher = longer survival
Outline: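 Mice carrying the transplanted tumor received test compound or vehicle. Survival was recorded in each group, and the value is the treated-group measurement divided by that of the vehicle-treated control group.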

[1] = dose: 25.0 mg/kg/injection, schedule: Q01DX009 (ip), vehicle: saline with Tween-80
[2] = dose: 50.0 mg/kg/injection, schedule: Q01DX009 (ip), vehicle: saline with Tween-80
[3] = dose: 100.0 mg/kg/injection, schedule: Q01DX009 (ip), vehicle: saline with Tween-80
[4] = dose: 50.0 mg/kg/injection, schedule: Q01DX005 (ip), vehicle: Klucel (hydroxypropylcellulose) (HPC)
[5] = dose: 50.0 mg/kg/injection, schedule: Q01DX005 (ip), vehicle: saline
[6] = dose: 100.0 mg/kg/injection, schedule: Q01DX005 (ip), vehicle: saline
[7] = dose: 200.0 mg/kg/injection, schedule: Q01DX005 (ip), vehicle: saline
[8] = dose: 12.5 mg/kg/injection, schedule: Q01DX005 (ip), vehicle: saline with Tween-80
[9] = dose: 25.0 mg/kg/injection, schedule: Q01DX005 (ip), vehicle: saline with Tween-80
[10] = dose: 50.0 mg/kg/injection, schedule: Q01DX005 (ip), vehicle: saline with Tween-80
[11] = dose: 50.0 mg/kg/injection, schedule: Q01DX009 (ip), vehicle: Klucel (hydroxypropylcellulose) (HPC)
[12] = dose: 100.0 mg/kg/injection, schedule: Q01DX009 (ip), vehicle: Klucel (hydroxypropylcellulose) (HPC)
[13] = dose: 200.0 mg/kg/injection, schedule: Q01DX009 (ip), vehicle: Klucel (hydroxypropylcellulose) (HPC)
[14] = dose: 60.0 mg/kg/injection, schedule: Q01DX005 (ip), vehicle: saline
[15] = dose: 120.0 mg/kg/injection, schedule: Q01DX005 (ip), vehicle: saline
[16] = dose: 100.0 mg/kg/injection, schedule: Q01DX005 (ip), vehicle: saline with Tween-80
[17] = dose: 200.0 mg/kg/injection, schedule: Q01DX005 (ip), vehicle: saline with Tween-80
[18] = dose: 200.0 mg/kg/injection, schedule: Q01DX009 (ip), vehicle: saline with Tween-80

Measured: T/C

COC(=O)C1c2c(C)cc3n2C(C=CC3)C1C(=O)OC (centres undefined)
inactive: dose: 100.0 mg/kg/injection, schedule: Q04DX003 (ip), vehicle: Klucel (hydroxypropylcellulose) (HPC) 94 % of control | dose: 200.0 mg/kg/injection, schedule: Q04DX003 (ip), vehicle: Klucel (hydroxypropylcellulose) (HPC) 93 % of control | dose: 400.0 mg/kg/injection, schedule: Q04DX003 (ip), vehicle: Klucel (hydroxypropylcellulose) (HPC) 101 % of control

CC(C)N(C(=O)C1CCN(Cc2c[nH]c3ccccc23)CC1)C(C)C
inactive: dose: 12.5 mg/kg/injection, schedule: Q01DX009 (ip), vehicle: saline with Tween-80 108 % of control | [1] 101 % of control | [2] 101 % of control | [3] 115 % of control

CC(C)=C1N(C(C)C)C(=C(C)C)N(C(C)C)C(=C(C)C)N1C(C)C
inactive: [4] 96 % of control | dose: 100.0 mg/kg/injection, schedule: Q01DX005 (ip), vehicle: Klucel (hydroxypropylcellulose) (HPC) 100 % of control | dose: 200.0 mg/kg/injection, schedule: Q01DX005 (ip), vehicle: Klucel (hydroxypropylcellulose) (HPC) 89 % of control

Cc1cccc(C)c1-n1c(C)nc2[nH]cc(C)c2c1=N
inactive: dose: 12.5 mg/kg/injection, schedule: Q01DX005 (ip), vehicle: Klucel (hydroxypropylcellulose) (HPC) 99 % of control | dose: 25.0 mg/kg/injection, schedule: Q01DX005 (ip), vehicle: Klucel (hydroxypropylcellulose) (HPC) 97 % of control | [4] 100 % of control and 97 % of control

CC(=O)Nc1cc2cc(NC=C(C#N)C#N)ccc2oc1=O
inactive: dose: 60.0 mg/kg/injection, schedule: Q01DX005 (ip), vehicle: Klucel + Tween-80 96 % of control | dose: 120.0 mg/kg/injection, schedule: Q01DX005 (ip), vehicle: Klucel + Tween-80 92 % of control

c1ccc(CON(CCc2ccccn2)CCc2ccccn2)cc1
inactive: [5] 97 % of control | [6] 98 % of control | [7] 98 % of control

CCN(CC)CCN1C(=O)C2C3C=CC(C2C1=O)C1C2C(=O)N(CCN(CC)CC)C(=O)C2C31 (centres undefined)
inactive: dose: 6.25 mg/kg/injection, schedule: Q01DX009 (ip), vehicle: water 104 % of control | dose: 12.5 mg/kg/injection, schedule: Q01DX009 (ip), vehicle: water 99 % of control and 100 % of control | dose: 25.0 mg/kg/injection, schedule: Q01DX009 (ip), vehicle: water 100 % of control and 111 % of control | dose: 50.0 mg/kg/injection, schedule: Q01DX009 (ip), vehicle: water 99 % of control and 103 % of control | dose: 100.0 mg/kg/injection, schedule: Q01DX009 (ip), vehicle: water 101 % of control and 111 % of control

O=C1NC(=O)C2C3CCC(C12)C1C2C(=O)NC(=O)C2C31 (centres undefined)
inactive: [8] 91 % of control | [9] 93 % of control | [10] 101 % of control and 91 % of control

COc1cc(OC)c(N=Cc2ccc(C=Nc3cc(Cl)c(OC)cc3OC)cc2)cc1Cl
inactive: [11] 100 % of control | [12] 89 % of control | [13] 86 % of control

COc1ccc(OC)c(CC(C)N)c1 (centres undefined)
inactive: [14] 98 % of control | [15] 93 % of control

Cc1ccc(S(=O)(=O)Oc2ccc3oc4cccc(NCCN(C)C)c4c(=O)c3c2)cc1
inactive: [10] 95 % of control | [16] 97 % of control | [17] 93 % of control

O/N=C/c1cc(I)cc(I)c1O
inactive: [10] 90 % of control | [16] 99 % of control | [17] 99 % of control

CC(C)(C)c1ccc(OP(=S)(NN)Oc2ccc(C(C)(C)C)cc2)cc1
inactive: [11] 98 % of control | [12] 102 % of control | [13] 94 % of control

CN(C)c1ccc(/C=N/O)cc1
inactive: dose: 12.5 mg/kg/injection, schedule: Q01DX009 (ip), vehicle: Klucel (hydroxypropylcellulose) (HPC) 86 % of control | dose: 25.0 mg/kg/injection, schedule: Q01DX009 (ip), vehicle: Klucel (hydroxypropylcellulose) (HPC) 101 % of control and 103 % of control and 110 % of control | [11] 103 % of control and 113 % of control | [12] 104 % of control and 113 % of control | [13] 96 % of control

NNc1ncc(S(=O)(=O)Cc2ccc3c(c2)OCO3)c(N)n1
inactive: dose: 100.0 mg/kg/injection, schedule: Q01DX001 (ip), vehicle: saline 101 % of control | dose: 200.0 mg/kg/injection, schedule: Q01DX001 (ip), vehicle: saline 98 % of control | dose: 400.0 mg/kg/injection, schedule: Q01DX001 (ip), vehicle: saline 98 % of control

CC1CC(C(=O)c2ccoc2)C(=O)O1 (centres undefined)
inactive: [8] 92 % of control | [9] 97 % of control | [10] 101 % of control and 91 % of control

Cc1cccc(-c2nc(N)nc(N)n2)c1
inactive: [2] 92 % of control | [3] 95 % of control | [18] 104 % of control

O=C1C2C3C=CC(O3)C2C(=O)N1/N=C\C(O)C(O)C(O)C(O)CO (centres undefined)
inactive: [10] 97 % of control | [16] 98 % of control | [17] 95 % of control

CC(C)(C)NC(=O)NCCCCCCNC(=O)NC(C)(C)C
inactive: dose: 60.0 mg/kg/injection, schedule: Q01DX005 (ip), vehicle: saline with Tween-80 96 % of control | dose: 120.0 mg/kg/injection, schedule: Q01DX005 (ip), vehicle: saline with Tween-80 96 % of control | dose: 240.0 mg/kg/injection, schedule: Q01DX005 (ip), vehicle: saline with Tween-80 101 % of control

CCOC(=O)c1ccccn1
inactive: dose: 12.5 mg/kg/injection, schedule: Q01DX009 (ip), vehicle: saline 95 % of control | dose: 25.0 mg/kg/injection, schedule: Q01DX009 (ip), vehicle: saline 98 % of control | dose: 50.0 mg/kg/injection, schedule: Q01DX009 (ip), vehicle: saline 101 % of control | dose: 100.0 mg/kg/injection, schedule: Q01DX009 (ip), vehicle: saline 100 % of control

O=C1c2ccccc2-c2cc(O)c3c4c(O)cc5c6c(ccc(c7ccc1c2c73)c64)C(=O)c1ccccc1-5
inactive: [10] 95 % of control | [16] 91 % of control | [17] 89 % of control

Cn1c2nc(-[n+]3ccc(Cc4ccccc4)cc3)nc-2c([O-])n(C)c1=O
inactive: dose: 100.0 mg/kg/injection, schedule: Q04DX002 (ip), vehicle: saline 100 % of control | dose: 200.0 mg/kg/injection, schedule: Q04DX002 (ip), vehicle: saline 99 % of control | dose: 400.0 mg/kg/injection, schedule: Q04DX002 (ip), vehicle: saline 95 % of control

C[Si](C)(C[P+](=O)[O][Sn]([CH3])([CH3])[O][P+](=O)C[Si](C)(C)c1ccccc1)c1ccccc1 (centres undefined)
inactive: dose: 3.75 mg/kg/injection, schedule: Q01DX005 (ip), vehicle: saline with Tween-80 100 % of control | dose: 7.5 mg/kg/injection, schedule: Q01DX005 (ip), vehicle: saline with Tween-80 93 % of control

CC1(C)CCC2=C1CC[C@H]1[C@H]2CCC2=CC(=O)CC[C@@]21C
inactive: [3] 90 % of control | dose: 100.0 mg/kg/injection, schedule: Q04DX003 (ip), vehicle: saline with Tween-80 110 % of control | [18] 100 % of control | dose: 200.0 mg/kg/injection, schedule: Q04DX003 (ip), vehicle: saline with Tween-80 105 % of control | dose: 400.0 mg/kg/injection, schedule: Q04DX003 (ip), vehicle: saline with Tween-80 115 % of control

CC(C)(C)C(=O)CS(=O)(=O)CC(=O)C(C)(C)C
inactive: [1] 112 % of control | [2] 108 % of control | [3] 103 % of control

CC(C)CC(N)C(=O)NC(C)C(=O)NC(CC(C)C)C(=O)O (stereo not drawn) (H-Leu-Ala-Leu-OH; configuration not given here)
inactive: dose: 25.0 mg/kg/injection, schedule: Q01DX005 (ip), vehicle: saline 101 % of control | [5] 102 % of control | [6] 101 % of control | [7] 100 % of control

c1cc(-c2ncc3ccncc3n2)ccn1
inactive: dose: 60.0 mg/kg/injection, schedule: Q01DX005 (ip), vehicle: Klucel (hydroxypropylcellulose) (HPC) 109 % of control | dose: 120.0 mg/kg/injection, schedule: Q01DX005 (ip), vehicle: Klucel (hydroxypropylcellulose) (HPC) 100 % of control | dose: 240.0 mg/kg/injection, schedule: Q01DX005 (ip), vehicle: Klucel (hydroxypropylcellulose) (HPC) 98 % of control

O=C(OCCO)c1c(Cl)c(Cl)c(Cl)c(Cl)c1-c1c2cc(Br)c(=O)c(Br)c-2oc2c(Br)c(O)c(Br)cc12
inactive: [14] 94 % of control | [15] 92 % of control
